Experimental data as given in US20160318987A1 (MEDIMMUNE LIMITED, priority 2013, published 2016).
Where a SMILES comes first, the peptide text is derived from it. [ ]: non-standard residue; d: D form. The star is where a group is joined. Palmitoyl = CCCCCCCCCCCCCCCC(=O)*; αMeF = C[C@](N)(Cc1ccccc1)C(=O)O; αMeK = C[C@](N)(CCCCN)C(=O)O; αMeV = CC(C)[C@](C)(N)C(=O)O; Aib = CC(C)(N)C(=O)O

What was measured:
hGLP-1R = target: T1, hGLP-1R (Homo sapiens, UniProt P43220); assay: cAMP functional assay, cells expressing human GLP-1 receptor (primary assay); assay type: cell-based; conditions: n = 2
T1 construct: expressed in transfected cells

hGIP-R = target: T2, hGIP-R (Homo sapiens, UniProt P48546); assay: cAMP functional assay, cells expressing human GIP receptor (primary assay); assay type: cell-based; conditions: n = 2
T2 construct: expressed in transfected cells
T2 sequence (P48546 22-466): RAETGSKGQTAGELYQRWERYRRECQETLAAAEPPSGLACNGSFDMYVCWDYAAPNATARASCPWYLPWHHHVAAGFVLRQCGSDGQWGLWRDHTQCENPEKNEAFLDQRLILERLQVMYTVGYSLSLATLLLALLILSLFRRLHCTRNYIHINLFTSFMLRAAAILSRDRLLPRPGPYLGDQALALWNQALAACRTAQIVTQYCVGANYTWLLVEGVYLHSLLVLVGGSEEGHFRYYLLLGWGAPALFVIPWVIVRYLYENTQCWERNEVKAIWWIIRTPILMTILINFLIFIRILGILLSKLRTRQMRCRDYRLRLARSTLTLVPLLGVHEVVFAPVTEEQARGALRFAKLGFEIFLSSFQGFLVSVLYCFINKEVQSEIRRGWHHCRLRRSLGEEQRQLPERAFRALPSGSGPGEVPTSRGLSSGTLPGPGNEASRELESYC

Chymotrypsin (rhCTRC) = target: T3, Chymotrypsin (rhCTRC) (Homo sapiens, UniProt Q99895); assay: chymotrypsin stability study (LC/MS); assay type: in vitro ADME; conditions: for Chymotrypsin cleavage/liability (Discussion / Description): Table 2 description
T3 construct: purchased R&D Systems 6907-SE-010
T3 sequence (Q99895 30-268): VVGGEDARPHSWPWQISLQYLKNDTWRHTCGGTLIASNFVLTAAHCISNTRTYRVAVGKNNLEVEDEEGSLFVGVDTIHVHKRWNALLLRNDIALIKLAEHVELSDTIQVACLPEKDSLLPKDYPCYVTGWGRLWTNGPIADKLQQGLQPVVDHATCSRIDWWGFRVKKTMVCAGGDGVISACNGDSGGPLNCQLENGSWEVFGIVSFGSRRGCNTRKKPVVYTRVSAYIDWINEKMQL
Procedure: (§1) Peptides for evaluation were prepared to a concentration of 1.0 mg/mL solutions in either pure water, sterile saline for injection (0.9% w/v NaCl/water) or 1× PBS (Dulbecco). 100 μL (100 μg/mL peptide) of these solutions was added to 900 μL of each protease solution. Additional experiments were performed examining protein degradation during exposure to serum and gastric fluid. For serum studies, peptides were incubated with 50% female Sprague-Dawley strain rat serum (SD rat serum). For gastric fluid studies, peptides were incubated 1:1 (volume:volume), fresh rat gastric fluid.
(§2) The peptide and enzyme (or serum or gastric fluid) were co-incubated in a temperature regulated water bath at 37° C. for the duration of the experiment. During each experiment 100 μL aliquots (10 μg peptide) of the incubated peptide-enzyme mixture were withdrawn periodically, quenched by addition of an equal volume of 5% TFA (v/v) in 1:1 water/acetonitrile to arrest proteolytic activity, and analyzed by liquid chromatography-mass spectrometry (LC/MS): Agilent Polaris C8-A column (4.6×100 mm, 3 micron) using a linear binary gradient of 10-90% MeCN (0.1% TFA v/v) in water (0.1% TFA v/v) over 30 minutes at 1.5 mL min^−1 at ambient temperature. Analytes were detected by both UV absorption at 210 nm and ionization using a Waters 3100 mass detector (ESI^+ mode). New peptidic species (fragments) derived from enzymatic cleavage of peptides were analyzed post-process, and their molecular masses were used to identify the precise cleavage position (highlighting the scissile bond in each case).

hGluc-R = target: T4, hGluc-R (Homo sapiens, UniProt P47871); assay: cAMP functional assay, cells expressing human glucagon receptor (primary assay); assay type: cell-based; conditions: n = 2
T4 construct: expressed in transfected cells

[1] = target: T5, trypsin from porcine pancreas (Sus scrofa, UniProt P00761); assay: trypsin stability study (LC/MS); assay type: in vitro ADME
T5 construct: purchased Sigma P7409; host or cells: porcine pancreas
Procedure: as §1, §2

Neprilysin (rhNEP) = target: T6, Neprilysin (rhNEP) (Homo sapiens, UniProt P08473); assay: neprilysin stability study (LC/MS); assay type: in vitro ADME; conditions: Table 2 description
T6 construct: purchased R&D Systems 1182-ZNC-010
Procedure: as §1, §2

[2] = gastric fluid stability study (LC/MS); assay type: in vitro ADME, rat
Procedure: as §1, §2

[3] = test system: DPP-IV, Neprilysin, Chymotrypsin, Trypsin, Pepsin; assay: enzyme resistance, protease panel (Table 2 description); assay type: in vitro ADME
Procedure: as §1, §2

T1 sequence (P43220 24-463): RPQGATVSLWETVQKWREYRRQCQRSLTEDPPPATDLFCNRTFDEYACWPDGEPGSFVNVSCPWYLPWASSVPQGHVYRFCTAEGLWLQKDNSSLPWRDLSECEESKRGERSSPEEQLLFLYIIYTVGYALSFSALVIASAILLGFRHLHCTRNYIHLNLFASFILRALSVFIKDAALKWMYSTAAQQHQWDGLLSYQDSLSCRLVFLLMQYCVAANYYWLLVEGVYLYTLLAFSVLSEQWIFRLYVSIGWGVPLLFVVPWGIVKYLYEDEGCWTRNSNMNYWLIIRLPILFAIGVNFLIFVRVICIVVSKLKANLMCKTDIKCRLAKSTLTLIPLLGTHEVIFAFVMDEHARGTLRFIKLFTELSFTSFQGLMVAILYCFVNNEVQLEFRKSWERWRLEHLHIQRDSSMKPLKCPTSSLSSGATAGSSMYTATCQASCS
T4 sequence (P47871 26-477): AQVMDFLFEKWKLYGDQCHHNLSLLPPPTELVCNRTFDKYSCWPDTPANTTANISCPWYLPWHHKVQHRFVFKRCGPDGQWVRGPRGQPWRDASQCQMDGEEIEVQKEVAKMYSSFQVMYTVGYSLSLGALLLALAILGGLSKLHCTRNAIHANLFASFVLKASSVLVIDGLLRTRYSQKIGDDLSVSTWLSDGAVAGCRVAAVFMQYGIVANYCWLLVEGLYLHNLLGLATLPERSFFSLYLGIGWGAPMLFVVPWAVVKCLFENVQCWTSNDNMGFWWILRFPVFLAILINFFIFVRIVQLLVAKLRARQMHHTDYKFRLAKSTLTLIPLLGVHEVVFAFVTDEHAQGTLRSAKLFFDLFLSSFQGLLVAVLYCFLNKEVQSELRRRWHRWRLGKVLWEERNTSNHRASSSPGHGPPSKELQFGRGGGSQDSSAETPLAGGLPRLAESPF
T5 sequence (P00761 9-231): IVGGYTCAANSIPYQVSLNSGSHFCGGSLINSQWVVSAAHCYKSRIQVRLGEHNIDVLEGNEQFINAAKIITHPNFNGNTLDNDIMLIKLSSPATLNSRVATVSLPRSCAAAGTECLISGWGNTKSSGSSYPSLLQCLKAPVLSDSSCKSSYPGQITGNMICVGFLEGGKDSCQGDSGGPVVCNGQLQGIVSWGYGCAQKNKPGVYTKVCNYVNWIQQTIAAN
T6 sequence (P08473 52-750 limits assumed): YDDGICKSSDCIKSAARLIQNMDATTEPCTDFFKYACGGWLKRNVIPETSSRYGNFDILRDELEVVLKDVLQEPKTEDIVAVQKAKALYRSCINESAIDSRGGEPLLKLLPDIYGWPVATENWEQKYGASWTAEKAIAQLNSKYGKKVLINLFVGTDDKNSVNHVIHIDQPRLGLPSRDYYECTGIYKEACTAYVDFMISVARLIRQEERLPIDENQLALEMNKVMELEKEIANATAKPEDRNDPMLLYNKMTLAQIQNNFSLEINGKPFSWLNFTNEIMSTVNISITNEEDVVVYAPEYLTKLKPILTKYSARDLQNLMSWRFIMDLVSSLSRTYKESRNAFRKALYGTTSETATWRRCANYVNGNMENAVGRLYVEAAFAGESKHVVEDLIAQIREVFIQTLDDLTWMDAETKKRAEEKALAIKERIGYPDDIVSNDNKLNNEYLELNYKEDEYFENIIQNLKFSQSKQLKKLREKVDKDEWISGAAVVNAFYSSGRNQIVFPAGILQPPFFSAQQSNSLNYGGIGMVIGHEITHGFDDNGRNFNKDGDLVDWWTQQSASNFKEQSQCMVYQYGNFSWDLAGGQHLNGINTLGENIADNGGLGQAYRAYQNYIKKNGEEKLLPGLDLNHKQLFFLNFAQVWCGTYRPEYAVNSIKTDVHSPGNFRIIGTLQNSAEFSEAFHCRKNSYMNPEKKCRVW

SMILES	EC50 (hGLP-1R)	EC50 (hGIP-R)	Chymotrypsin cleavage/liability (Discussion / Description) (Chymotrypsin (rhCTRC))	EC50 (hGluc-R)	duration of stability, no major cleavage products (Chymotrypsin (rhCTRC); chymotrypsin, 37° C.)	duration of stability ([1]; trypsin, 37° C.)	Neprilysin resistance (Discussion / Description) (Neprilysin (rhNEP))	Trypsin resistance/susceptibility (Discussion / Description) ([1]; Table 2 description)	stability relative to Liraglutide ([2]; rat gastric fluid 1:1)	stability relative to lipidated comparator SEQ ID NO: 5 ([2]; rat gastric fluid 1:1)	spectrum over the time course ([2]; rat gastric fluid, zoomed spectra)	enzyme resistance (DPP-IV, Neprilysin, Chymotrypsin, Trypsin, Pepsin) [3]
CC[C@H](C)[C@H](NC(=O)[C@](C)(Cc1ccccc1)NC(=O)[C@H](CCC(=O)O)NC(=O)[C@H](CCCCN)NC(=O)[C@H](C)NC(=O)[C@H](C)NC(=O)[C@H](CCC(N)=O)NC(=O)CNC(=O)[C@H](CCC(=O)O)NC(=O)[C@H](CC(C)C)NC(=O)[C@](C)(Cc1ccccc1)NC(=O)[C@H](CO)NC(=O)[C@H](CO)NC(=O)[C@@H](NC(=O)[C@H](CC(=O)O)NC(=O)[C@H](CO)NC(=O)[C@@H](NC(=O)[C@](C)(Cc1ccccc1)NC(=O)[C@H](CO)NC(=O)CNC(=O)[C@H](CCC(=O)O)NC(=O)C(C)(C)NC(=O)[C@@H](N)Cc1c[nH]cn1)[C@@H](C)O)C(C)C)C(=O)N[C@@H](C)C(=O)N[C@@](C)(Cc1ccccc1)C(=O)N[C@@H](CC(C)C)C(=O)N[C@](C)(C(=O)N[C@@H](CCCCN)C(=O)NCC(=O)N[C@@H](CCCNC(=N)N)C(N)=O)C(C)C [SEQ ID NO: 41, H-(Aib)^2-EG-(S)^5-(α-MeF)^6-TSDV^10 SS-(α-MeF)^13-LE^15 GQAAK^20 E-(α-MeF)^22-IA-(α-MeF)^25 L-(α-MeV)^27-KGR^30] (H-H[Aib]EGS[αMeF]TSDVSS[αMeF]LEGQAAKE[αMeF]IA[αMeF]L[αMeV]KGR-NH2)	0.0546 nM	102 nM	MeVal^27 overcomes									
CC[C@H](C)[C@H](NC(=O)[C@](C)(Cc1ccccc1)NC(=O)[C@H](CCC(=O)O)NC(=O)[C@](C)(CCCCN)NC(=O)[C@H](C)NC(=O)[C@H](C)NC(=O)[C@H](CCC(N)=O)NC(=O)CNC(=O)[C@H](CCC(=O)O)NC(=O)[C@H](CC(C)C)NC(=O)[C@](C)(Cc1ccccc1)NC(=O)[C@H](CO)NC(=O)[C@H](CO)NC(=O)[C@@H](NC(=O)[C@H](CC(=O)O)NC(=O)[C@H](CO)NC(=O)[C@@H](NC(=O)[C@](C)(Cc1ccccc1)NC(=O)[C@H](CO)NC(=O)CNC(=O)[C@H](CCC(=O)O)NC(=O)C(C)(C)NC(=O)[C@@H](N)Cc1c[nH]cn1)[C@@H](C)O)C(C)C)C(=O)N[C@@H](C)C(=O)N[C@@](C)(Cc1ccccc1)C(=O)N[C@H](C(=O)N[C@H](C(=O)N[C@@](C)(CCCCN)C(=O)NCC(=O)NCC(N)=O)C(C)C)C(C)C [SEQ ID NO: 51, H-(Aib)^2-EG-(S)^5-(α-MeF)^6-TSDV^10 SS-(α-MeF)^13-LE^15 GQAA-(α-MeK)^20 E-(α-MeF)^22-IA-(α-MeF)^25-(V)^26-V-(α-MeK)^28-G-(G)^30] (H-H[Aib]EGS[αMeF]TSDVSS[αMeF]LEGQAA[αMeK]E[αMeF]IA[αMeF]VV[αMeK]GG-NH2)	0.0219 nM	104 nM	overcoming Chymotrypsin	104 nM	over 60 hours	over 18 hours						
CC[C@H](C)[C@H](NC(=O)[C@](C)(Cc1ccccc1)NC(=O)[C@H](CCC(=O)O)NC(=O)[C@](C)(CCCCN)NC(=O)[C@H](C)NC(=O)[C@H](C)NC(=O)[C@H](CCC(N)=O)NC(=O)CNC(=O)[C@H](CCC(=O)O)NC(=O)[C@H](CC(C)C)NC(=O)[C@](C)(Cc1ccccc1)NC(=O)[C@H](CO)NC(=O)[C@H](CO)NC(=O)[C@@H](NC(=O)[C@H](CC(=O)O)NC(=O)[C@H](CO)NC(=O)[C@@H](NC(=O)[C@](C)(Cc1ccccc1)NC(=O)[C@H](CO)NC(=O)CNC(=O)[C@H](CCC(=O)O)NC(=O)C(C)(C)NC(=O)[C@@H](N)Cc1c[nH]cn1)[C@@H](C)O)C(C)C)C(=O)N[C@@H](C)C(=O)N[C@@](C)(Cc1ccccc1)C(=O)N[C@@H](CC(C)C)C(=O)N[C@H](C(=O)N[C@@](C)(CCCCN)C(=O)NCC(=O)NCC(N)=O)C(C)C [SEQ ID NO: 46, H-(Aib)^2-EG-(S)^5-(α-MeF)^6-TSDV^10 SS-(α-MeF)^13-LE^15 GQAA-(α-MeK)^20 E-(α-MeF)^22-IA-(α-MeF)^25 LV-(α-MeK)^28-G-(G)^30] (H-H[Aib]EGS[αMeF]TSDVSS[αMeF]LEGQAA[αMeK]E[αMeF]IA[αMeF]LV[αMeK]GG-NH2)	0.0141 nM	103 nM		103 nM			resistance, maintaining	resistance, maintaining				
CCCCCCCCCCCCCCCC(=O)NCCCC[C@H](NC(=O)CNC(=O)CNC(=O)[C@](C)(CCCCN)NC(=O)[C@@H](NC(=O)[C@@H](NC(=O)[C@](C)(Cc1ccccc1)NC(=O)[C@H](C)NC(=O)[C@@H](NC(=O)[C@](C)(Cc1ccccc1)NC(=O)[C@H](CCC(=O)O)NC(=O)[C@](C)(CCCCN)NC(=O)[C@H](C)NC(=O)[C@H](C)NC(=O)[C@H](CCC(N)=O)NC(=O)CNC(=O)[C@H](CCC(=O)O)NC(=O)[C@H](CC(C)C)NC(=O)[C@](C)(Cc1ccccc1)NC(=O)[C@H](CO)NC(=O)[C@H](CO)NC(=O)[C@@H](NC(=O)[C@H](CC(=O)O)NC(=O)[C@H](CO)NC(=O)[C@@H](NC(=O)[C@](C)(Cc1ccccc1)NC(=O)[C@H](CO)NC(=O)CNC(=O)[C@H](CCC(=O)O)NC(=O)C(C)(C)NC(=O)[C@@H](N)Cc1c[nH]cn1)[C@@H](C)O)C(C)C)[C@@H](C)CC)C(C)C)C(C)C)C(N)=O [SEQ ID NO: 52, H-(Aib)^2-EG-(S)^5-(α-MeF)^6-TSDV^10 SS-(α-MeF)^13-LE^15 GQAA-(α-MeK)^20 E-(α-MeF)^22-IA-(α-MeF)^25-(V)^26-V-(α-MeK)^28-G-(G)^30-K(Ε-Palm)] (H-H[Aib]EGS[αMeF]TSDVSS[αMeF]LEGQAA[αMeK]E[αMeF]IA[αMeF]VV[αMeK]GGK(Palmitoyl)-NH2)	0.41 nM	93.1 nM		93.1 nM					significantly exceeds	significantly exceeds	virtually unchanged spectrum	excellent enzyme resistance
CC[C@H](C)[C@H](NC(=O)[C@](C)(Cc1ccccc1)NC(=O)[C@H](CCC(=O)O)NC(=O)[C@](C)(CCCCN)NC(=O)[C@H](C)NC(=O)[C@H](C)NC(=O)[C@H](CCC(=O)O)NC(=O)CNC(=O)[C@H](CCC(=O)O)NC(=O)[C@H](CC(C)C)NC(=O)[C@](C)(Cc1ccccc1)NC(=O)[C@H](CO)NC(=O)[C@H](CO)NC(=O)[C@@H](NC(=O)[C@H](CC(=O)O)NC(=O)[C@H](CO)NC(=O)[C@@H](NC(=O)[C@](C)(Cc1ccccc1)NC(=O)[C@H](CO)NC(=O)CNC(=O)[C@H](CCC(=O)O)NC(=O)C(C)(C)NC(=O)[C@@H](N)Cc1c[nH]cn1)[C@@H](C)O)C(C)C)C(=O)N[C@@H](C)C(=O)N[C@@](C)(Cc1ccccc1)C(=O)N[C@H](C(=O)N[C@H](C(=O)N[C@@](C)(CCCCN)C(=O)NCC(=O)NCC(N)=O)C(C)C)C(C)C [SEQ ID NO: 60, H-(Aib)^2-EG-(S)^5-(α-MeF)^6-TSDV^10 SS-(α-MeF)^13-LE^15 G-(E)^17-AA-(α-MeK)^20 E-(α-MeF)^22-IA-(α-MeF)^25-(V)^26-V-(α-MeK)^28-G-(G)^30]	0.0212 nM	104 nM		66.3 nM								Excellent enzyme resistance
